± gives the expanded uncertainty stated by the source.
Conditions: Crystal; visual observation

Row | Normal melting temperature | Compound
1 | -20.60 ± 0.39 °C | CCC(=O)O [propanoic acid]
2 | 12.8 ± 0.39 °C | C=CC(=O)O [propenoic acid]

Reference: the NIST ThermoML archive (doi:10.1021/je201193d)
